How the values were obtained:
human URAT1 h-I481M = biological target: T1, human URAT1 h-I481M (Homo sapiens, UniProt Q96S37, I481M); test: URAT1 activity assay, h-I481M; type: cell-based
T1 construct: expressed in transfected cells; host or cells: HEK-293T
Description: (§1) Human URAT1 (GenBank BC053348.1, Homo sapiens SLC22A12), rat URAT1 (NCBI NM_001034943.1, Rattus norvegicus Slc22a12) and human OAT4 (NCBI NM_018484.2, Homo sapiens SLC22A11) genes were purchased from Origene Technologies, Inc. and subcloned into pCMV6/neo using NotI. Where indicated, controls transfections used pCMV6/neo. Mutants were produced by site-directed mutagenesis using the QuikChange Lightning Multi Site-Directed Mutagenesis Kit (Agilent Technologies). […] Mutagenic primer sequences are provided in ref. [15] and mutagenic primer sequences for previously unreported mutants shown in Supplementary Table 1. All constructs used in this study were untagged. Human OAT1 was purchased from Fisher Scientific (catalog # MHS1010–7508183 in pSPORT6, NCBI NM_153276.2, Homo sapiens SLC22A6).
(§2) HEK-293T cells were maintained in DMEM/high glucose/L-glutamine/HEPES supplemented with 1 mM sodium pyruvate (Life Technologies) and 10% FBS (PAA Laboratories) at 37 °C in 5% CO2. […]
(§3) URAT1 and OAT4 activity assays were performed in assay buffer consisting of 25 mM MES pH 5.5 (from a 1 M MES solution [Sigma] adjusted to pH 5.5 with sodium hydroxide), 125 mM sodium gluconate, 4.8 mM potassium gluconate, 1.2 mM monobasic potassium phosphate, 1.2 mM magnesium sulfate, 1.3 mM calcium gluconate and 5.6 mM glucose. […] Each treatment was measured in triplicate.

human OAT1 = biological target: T2, human OAT1 (Homo sapiens, UniProt Q4U2R8); test: OAT1 activity assay (carboxyfluorescein transport); type: cell-based
T2 construct: host or cells: HEK-293T
T2 sequence (Q4U2R8 1-550 isoform Q4U2R8-2): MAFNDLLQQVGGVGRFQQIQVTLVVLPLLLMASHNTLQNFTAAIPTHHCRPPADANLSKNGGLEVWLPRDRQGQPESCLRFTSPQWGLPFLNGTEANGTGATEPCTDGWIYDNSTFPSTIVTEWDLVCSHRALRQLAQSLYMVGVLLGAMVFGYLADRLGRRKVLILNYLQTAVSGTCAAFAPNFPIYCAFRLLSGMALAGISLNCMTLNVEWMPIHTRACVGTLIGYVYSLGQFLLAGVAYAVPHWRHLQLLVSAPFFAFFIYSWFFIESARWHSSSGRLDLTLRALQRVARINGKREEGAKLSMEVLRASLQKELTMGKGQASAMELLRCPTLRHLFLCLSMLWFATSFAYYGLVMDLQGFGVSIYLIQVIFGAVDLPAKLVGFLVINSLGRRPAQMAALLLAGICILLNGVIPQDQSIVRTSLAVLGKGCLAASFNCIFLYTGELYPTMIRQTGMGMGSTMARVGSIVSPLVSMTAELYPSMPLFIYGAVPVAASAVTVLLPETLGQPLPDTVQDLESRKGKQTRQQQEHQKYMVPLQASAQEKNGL
Protocol: DNA (10 μg) was mixed with 30 μl of […] Gold (Boca Scientific) in 2 ml OptiMem (Life Technologies). […] The cells were assayed the following day. OAT1-expressing cells were assayed in a buffer containing 20 mM HEPES (from a 1 M solution at pH 7.3; USB Corporation), 130 mM sodium chloride, 4 mM potassium chloride, 1 mM magnesium sulfate, 1 mM calcium chloride, 1 mM sodium phosphate dibasic and 18 mM glucose. […] Cells were then solubilized in 0.1 N sodium hydroxide prior to fluorimetry measurements. Each treatment was measured in triplicate.

rat URAT1 r-N35S/Y365F = rat URAT1 r-N35S/Y365F (Rattus norvegicus, UniProt Q3ZAV1, N35S/Y365F); test: cell-based
rat URAT1 r-N35S/Y365F, sequence (Q3ZAV1 whole entry N35S/Y365F): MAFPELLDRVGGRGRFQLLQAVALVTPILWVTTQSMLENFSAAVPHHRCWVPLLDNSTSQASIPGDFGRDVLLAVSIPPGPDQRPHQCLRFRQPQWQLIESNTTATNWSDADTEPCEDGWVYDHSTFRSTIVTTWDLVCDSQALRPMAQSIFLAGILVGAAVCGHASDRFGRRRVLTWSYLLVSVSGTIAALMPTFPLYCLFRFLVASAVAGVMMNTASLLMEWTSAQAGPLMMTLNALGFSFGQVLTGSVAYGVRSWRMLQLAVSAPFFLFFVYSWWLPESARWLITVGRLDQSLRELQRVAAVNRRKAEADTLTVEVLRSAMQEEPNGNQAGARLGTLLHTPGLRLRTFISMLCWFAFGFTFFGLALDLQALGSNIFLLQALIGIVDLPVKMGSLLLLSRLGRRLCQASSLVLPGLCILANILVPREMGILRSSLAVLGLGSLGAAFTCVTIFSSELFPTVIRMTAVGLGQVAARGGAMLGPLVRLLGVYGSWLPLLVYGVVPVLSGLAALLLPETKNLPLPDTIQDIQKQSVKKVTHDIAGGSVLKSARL
Description: as §1
(§4) HEK-293T cells were maintained in DMEM/high glucose/L-glutamine/HEPES supplemented with 1 mM sodium pyruvate (Life Technologies) and 10% FBS (PAA Laboratories) at 37 °C in 5% CO2. To express URAT1, OAT4 or OAT1, plasmids were reverse transfected into HEK-293T cells. DNA (10 µg) was mixed with 30 µl of DreamFect Gold (Boca Scientific) in 2 ml OptiMem (Life Technologies). After 20 minutes, 18 ml of media containing 2 × 10^7 cells in suspension was added and mixed, and 200 µl per well were plated onto white clear-bottomed poly-D-lysine coated 96-well plates (BD Biosciences). The cells were assayed the following day.
(§5) URAT1 and OAT4 activity assays were performed in assay buffer consisting of 25 mM MES pH 5.5 (from a 1 M MES solution [Sigma] adjusted to pH 5.5 with sodium hydroxide), 125 mM sodium gluconate, 4.8 mM potassium gluconate, 1.2 mM monobasic potassium phosphate, 1.2 mM magnesium sulfate, 1.3 mM calcium gluconate and 5.6 mM glucose. URAT1 inhibitors were serially diluted into assay buffer and added to the cells for 5 minutes prior to addition of substrate. URAT1-expressing cells were incubated with 100 µM ^14C-uric acid for 10 minutes and OAT4-expressing cells were incubated with 20 µM carboxyfluorescein (Life Technologies, Inc.) for 5 minutes. Cells were then washed three times in 25 mM MES pH 5.5/125 mM sodium gluconate, and solubilized in Ultima Gold (Perkin Elmer) prior to liquid scintillation counting. Each treatment was measured in triplicate.

rat URAT1 r-A21T = rat URAT1 r-A21T (Rattus norvegicus, UniProt Q3ZAV1, A21T); test: cell-based
rat URAT1 r-A21T, sequence (Q3ZAV1 whole entry A21T): as the sequence (Q3ZAV1 whole entry N35S/Y365F) above, with A21T, S35N, F365Y counted along it
Description: as §1, §4, §5

rat URAT1 r-V22M = rat URAT1 r-V22M (Rattus norvegicus, UniProt Q3ZAV1, V22M); test: cell-based
rat URAT1 r-V22M, sequence (Q3ZAV1 whole entry V22M): as the sequence (Q3ZAV1 whole entry N35S/Y365F) above, with V22M, S35N, F365Y counted along it
Description: as §1, §4, §5

rat URAT1 r-L18V = rat URAT1 r-L18V (Rattus norvegicus, UniProt Q3ZAV1, L18V); test: cell-based
rat URAT1 r-L18V, sequence (Q3ZAV1 whole entry L18V): as the sequence (Q3ZAV1 whole entry N35S/Y365F) above, with L18V, S35N, F365Y counted along it
Description: as §1, §4, §5

rat URAT1 r-V31L = rat URAT1 r-V31L (Rattus norvegicus, UniProt Q3ZAV1, V31L); test: cell-based
rat URAT1 r-V31L, sequence (Q3ZAV1 whole entry V31L): as the sequence (Q3ZAV1 whole entry N35S/Y365F) above, with V31L, S35N, F365Y counted along it
Description: as §1, §4, §5

rat URAT1 r-P27S = rat URAT1 r-P27S (Rattus norvegicus, UniProt Q3ZAV1, P27S); test: cell-based
rat URAT1 r-P27S, sequence (Q3ZAV1 whole entry P27S): as the sequence (Q3ZAV1 whole entry N35S/Y365F) above, with P27S, S35N, F365Y counted along it
Description: as §1, §4, §5

rat URAT1 r-T26V = rat URAT1 r-T26V (Rattus norvegicus, UniProt Q3ZAV1, T26V); test: cell-based
rat URAT1 r-T26V, sequence (Q3ZAV1 whole entry T26V): as the sequence (Q3ZAV1 whole entry N35S/Y365F) above, with T26V, S35N, F365Y counted along it
Description: as §1, §4, §5

rat URAT1 r-N35S/M481I = rat URAT1 r-N35S/M481I (Rattus norvegicus, UniProt Q3ZAV1, M481I/N35S); test: cell-based
rat URAT1 r-N35S/M481I, sequence (Q3ZAV1 whole entry N35S/M481I): as the sequence (Q3ZAV1 whole entry N35S/Y365F) above, with F365Y, M481I counted along it
Description: as §1, §4, §5

rat URAT1 r-Y365F/M481I = rat URAT1 r-Y365F/M481I (Rattus norvegicus, UniProt Q3ZAV1, M481I/Y365F); test: cell-based
rat URAT1 r-Y365F/M481I, sequence (Q3ZAV1 whole entry Y365F/M481I): as the sequence (Q3ZAV1 whole entry N35S/Y365F) above, with S35N, M481I counted along it
Description: as §1, §4, §5

rat URAT1 r-L29M = rat URAT1 r-L29M (Rattus norvegicus, UniProt Q3ZAV1, L29M); test: cell-based
rat URAT1 r-L29M, sequence (Q3ZAV1 whole entry L29M): as the sequence (Q3ZAV1 whole entry N35S/Y365F) above, with L29M, S35N, F365Y counted along it
Description: as §1, §4, §5

rat URAT1-Y365F = biological target: T3, rat URAT1-Y365F (Rattus norvegicus, UniProt Q3ZAV1, Y365F); test: URAT1 activity assay, r-Y365F; type: cell-based
T3 construct: expressed in transfected cells; host or cells: HEK-293T
T3 sequence (Q3ZAV1 1-553 Y365F): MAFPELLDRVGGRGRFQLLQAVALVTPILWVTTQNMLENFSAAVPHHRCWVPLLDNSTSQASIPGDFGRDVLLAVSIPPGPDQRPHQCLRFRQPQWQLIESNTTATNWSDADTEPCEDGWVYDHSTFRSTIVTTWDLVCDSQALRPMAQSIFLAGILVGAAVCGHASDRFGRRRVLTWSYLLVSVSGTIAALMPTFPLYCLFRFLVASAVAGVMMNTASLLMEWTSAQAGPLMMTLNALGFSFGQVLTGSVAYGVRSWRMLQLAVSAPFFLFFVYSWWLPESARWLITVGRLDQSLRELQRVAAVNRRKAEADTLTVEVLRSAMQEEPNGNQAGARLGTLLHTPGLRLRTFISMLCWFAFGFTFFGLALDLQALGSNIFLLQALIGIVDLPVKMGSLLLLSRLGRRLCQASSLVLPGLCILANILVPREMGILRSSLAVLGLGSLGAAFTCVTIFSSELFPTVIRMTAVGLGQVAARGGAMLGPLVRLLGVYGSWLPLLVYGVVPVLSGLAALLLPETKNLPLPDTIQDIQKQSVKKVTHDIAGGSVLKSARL
Description: as §1, §2, §3

T1 sequence (Q96S37 whole entry I481M): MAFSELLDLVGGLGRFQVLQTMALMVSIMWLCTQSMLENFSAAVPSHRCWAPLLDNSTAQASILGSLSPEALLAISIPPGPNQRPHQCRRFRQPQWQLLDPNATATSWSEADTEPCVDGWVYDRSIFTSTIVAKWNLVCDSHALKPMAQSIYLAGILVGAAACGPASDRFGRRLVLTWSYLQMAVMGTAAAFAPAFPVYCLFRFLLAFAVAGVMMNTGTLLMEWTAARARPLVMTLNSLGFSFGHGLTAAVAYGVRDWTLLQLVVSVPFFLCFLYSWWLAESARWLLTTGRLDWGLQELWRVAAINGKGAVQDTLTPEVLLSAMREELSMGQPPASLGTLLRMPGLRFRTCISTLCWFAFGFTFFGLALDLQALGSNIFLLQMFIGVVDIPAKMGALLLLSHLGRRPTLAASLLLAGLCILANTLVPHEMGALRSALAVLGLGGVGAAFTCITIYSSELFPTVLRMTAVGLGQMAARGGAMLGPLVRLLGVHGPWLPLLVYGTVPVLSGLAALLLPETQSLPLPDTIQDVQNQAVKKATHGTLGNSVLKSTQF

CC(C)(Sc1ccncc1-c1ccc(C#N)c2ccccc12)C(=O)O [Verinurad, 2-((3-(4-cyanonaphthalen-1-yl)pyrindin-4-yl)thio)-2-methylpropanoic acid] was tested, and the “fold reduction in affinity compared to human URAT1” value (human URAT1 h-I481M) was 2 fold, the IC50 (human URAT1 h-I481M; TM11 point mutant, read-out: Verinurad affinity (IC50)) was 0.053 ± 0.01 µM and the IC50 (human OAT1; human OAT1 in HEK-293T, 20 µM carboxyfluorescein, read-out: IC50, inhibition of transport activity) was 4.6 ± 1.4 µM. For the same molecule, the “fold lower affinity compared to URAT1” value (human OAT1; human OAT1 vs human URAT1) was “approximately 200 fold”, the IC50 (rat URAT1 r-N35S/Y365F) was 0.47 µM and the IC50 (rat URAT1 r-A21T) was 36 ± 5.2 µM. For the same molecule, the IC50 (rat URAT1 r-V22M) was 43 ± 2.5 µM, the IC50 (rat URAT1 r-L18V) was 40 ± 6.1 µM and the IC50 (rat URAT1 r-V31L) was 29 ± 3.2 µM. The IC50 (rat URAT1 r-P27S) was 27 ± 3.4 µM, the “fold increase in affinity” value (rat URAT1 r-P27S; printed r-S27P, vs rat URAT1) was 1.5 fold and the IC50 (rat URAT1 r-T26V) was 39 ± 5.5 µM. The IC50 (rat URAT1 r-N35S/M481I) was 4.43 µM, the IC50 (rat URAT1 r-Y365F/M481I) was 0.59 µM and the IC50 (rat URAT1 r-L29M) was 29 ± 3.3 µM. For the same molecule, the “fold higher affinity compared to rat URAT1” value (rat URAT1-Y365F) was 14 fold and the IC50 (rat URAT1-Y365F; TM7 point mutant, read-out: Verinurad affinity (IC50)) was 2.9 ± 1.3 µM.
